B1: IFNg: IFNg, known not to induce E-selectin in vitro; control cytokine (protein, UniProt P01579 24-161, looked up)
Interferon gamma: QDPYVKEAENLKKYFNAGHSDVADNGTLFLGILKNWKEESDRKIMQSQIVSFYFKLFKNFKDDQSIQKSVETIKEDMNVKFFNSNKKKRDDFEKLTNYSVTDLNVQRKAIHELIQVMAELSPAAKTGKRKRSQMLFRG

What was measured:
SEAP expression = experiment: Effect of inhibitory compounds on TNF-induced SEAP expression; assay type: in vivo, mouse; settings: for inhibition of marker enzyme (SEAP) expression: SEAP-1 animals (Example 2), 1 mg/kg i.v.; for modification of SEAP expression: SEAP-2 animals
Experimental: Test 5: Effect of Inhibitory Compounds on SEAP Expression.
Clasto-lactacystine-β-lactone, a commercially available proteasome inhibitor is dissolved in DMSO (10 μl/100 μg) and further diluted with 90 μl Peg300. This mixture is further diluted 1:10 in saline and injected i.v. to animals of Example 2 at a dose of 1 mg/kg. Ten to 15 min later TNF is administered i.p. to compound-treated or untreated animals of Example 2. Blood samples are taken from the animals at baseline, 6 hours and 24 hours and SEAP levels analyzed.

[1] = tested on: SEAP expression under the control of the E-selectin regulatory sequence; experiment: LPS and cytokine induction of SEAP expression in heterozygous mice; assay type: in vivo, mouse; settings: either line (SEAP-1, SEAP-2)
Experimental: Test 1: LPS and Cytokine Induction of SEAP Expression in Heterozygous Mice.
Heterozygous mice of Example 1 and Example 2 are injected with LPS (Sigma, Serotype 0:111B4 Cat. L4130) at a dose of 25 μg per mouse. Murine recombinant TNFα (R&D Systems, Cat No. 410-MT) is diluted in sterile saline and administered at a dose of 500 ng/mouse. Administration is intravenously, e.g., into the tail vein, subcutaneously or intraperitoneally.
Blood for analysis is taken from a superficial vein of the mouse into heparinized glass hematocrit capillaries. The blood is centrifuged in a table-top Eppendorff centrifuge at maximal speed for 5 min to prepare plasma.
A standard curve is created with human placental alkaline phosphatase (PAP) (Sigma Cat. P-3895). A stock solution of 2 mg/ml dissolved in buffer (Tris/HCl 50 mM pH 7.4; NaCl 150 mM; BSA 1%) is stored at −80° C. in aliquots. The standard curve is diluted in mouse plasma containing Heparin. The range of the standard curve is between 0.5 and 50000 ng/mL PAP.
For the enzyme assay the Tropix Kit (Tropix, Cat. No BP300) is used.
The results are plotted in FIGS. 3 and 4. […] The maximal levels of plasma SEAP are reached at 6 hours post-stimulation in animals of Example 2, the maximum reached in animals of Example 1 is not seen until 24 hours post stimulation. SEAP-2 mice express about 1000-fold more marker enzyme than SEAourP-1 animals. […]

Molecule	inhibition of marker enzyme (SEAP) expression (SEAP expression; 6 hours after TNF)	inhibition of marker enzyme (SEAP) expression (SEAP expression; 24 hours after TNF)	modification of SEAP expression (SEAP expression; 6 hours after TNF)	modification of SEAP expression (SEAP expression; 24 hours after TNF)	effect on SEAP induction [1]
CC(C)[C@H](O)[C@@]12NC(=O)[C@H](C)[C@@H]1OC2=O [clasto-lactacystine-β-lactone, Clasto-lactacystine-β-lactone]	significant inhibition	no effect	does not modify	does not modify	–
B1	–	–	–	–	no effect

Reference: patent publication US6632978B1, “Transgenic animals for studying regulation of genes” (Novartis AG, priority 1999, dated 2003)
